Test system: patients with ALS
Experiment: BENEFIT-ALS clinical trial: treatment-emergent adverse events, discontinuations, deaths
Format: in vivo, human
Description: BENEFIT-ALS was a multi-national, randomized, stratified, double-blind, placebo-controlled, parallel-group study of tirasemtiv in patients with ALS. The study consisted of a screening period, an open-label/lead-in period, and a double-blind treatment period. Following screening, eligible patients received open-label tirasemtiv, 125 mg BID, for 7 days. Patients who tolerated the 7-day lead-in period were randomized in a 1:1 ratio to tirasemtiv or placebo. Over the first 3 weeks of double-blind treatment, patients randomized to tirasemtiv had their TDD up-titrated as follows: 250 mg for 7 days, then 375 mg for 7 days, then 500 mg for 7 days. […] However, in such cases, dose escalation was re-attempted at least one additional time. The highest tolerable tirasemtiv dose for each individual patient was the dose that patient received for the remaining 9 weeks (i.e., the maximum tolerated dose [MTD] phase) of the study. Patients randomized to placebo underwent a corresponding dummy dose titration.
A total of 711 patients were enrolled in the study and began treatment with open-label tirasemtiv 125 mg BID. After the one-week open-label phase, 302 patients were randomized to placebo and 303 to tirasemtiv. Of these randomized patients, 269 in the placebo group and 204 in the tirasemtiv group completed the study, while 33 on placebo and 99 on tirasemtiv prematurely discontinued study drug, primarily due to AEs (12 patients on placebo 78 patients on tirasemtiv) and patient withdrawal of consent (7 placebo, 12 tirasemtiv).
Safety data presented were based on the safety analysis set, defined as all patients who received at least 1 dose of double-blind study drug. Of the 605 randomized patients, 596 (295 placebo, 301 tirasemtiv) received at least 1 dose of double-blind study drug and were included in the safety analysis set. Data for the primary and secondary efficacy endpoints were analyzed with the Modified FAS. This analysis set included all patients who received at least 1 dose of double-blind study drug and had at least 1 efficacy assessment during the double-blind treatment period, and excluded 156 patients who were randomized in blocks containing patients affected by a study drug assignment error in which 58 patients randomized to and treated with double-blind tirasemtiv were dispensed double-blind placebo instead. Based on these criteria, the Modified FAS consisted of 388 patients (210 placebo, 178 tirasemtiv).
An overview of treatment-emergent AEs during the double-blind phase of the study is provided in Table 4, and commonly reported AEs during the double-blind phase are summarized in Table 5. Serious AEs during the double-blind phase of the study were reported for 16 patients (5.4%) in the placebo group and 27 patients (9.0%) in the tirasemtiv group. By the Medical Dictionary for Regulatory […] (MedDRA) system organ class, the most commonly reported SAEs involved respiratory, thoracic and mediastinal disorders (2.0% placebo, 1.3% tirasemtiv). By MedDRA preferred term, AEs that were reported for more than 1 patient included the following: dysphagia (0.3% placebo, 0.7% tirasemtiv), pneumonia (0.3% placebo, 0.7% tirasemtiv), confusional state (0% placebo, 0.7% tirasemtiv), delirium (0% placebo, 0.7% tirasemtiv), and respiratory failure (1.0% placebo, […]).

[1] = double-blind phase, N=301, MedDRA preferred term
[2] = double-blind phase, N=301, NCI CTCAE
[3] = double-blind phase, N=301, listed as tirasemtiv
[4] = double-blind phase, reported for more than 1 patient

## C#Cc1cnc2nc(O)n(C(CC)CC)c2n1 [Tirasemtiv, 6-ethynyl-1-(pentan-3-yl)-1H-imidazo[4,5-b]pyrazin-2(3H)one]
71/97 of early terminations
  Patients who terminated treatment during the first 4 weeks of the double-blind phase: 73.2%
double-blind phase
  Confusional state leading to early discontinuation: 5.0%
  Dizziness leading to early discontinuation: 9.3%
  Fatigue leading to early discontinuation: 5.0%
  Gastrointestinal (GI) AEs, % of patients: 43.5%
  Gastrointestinal (GI) AEs, No. of patients: 131
  SAEs: respiratory, thoracic and mediastinal disorders (MedDRA system organ class): 1.3%
double-blind phase, N=301
  % of patients with AE leading to early termination: (25.9%)
  % of patients with SAE: (9.0%)
  Deaths, % of patients: (0.7%)
  Deaths, No. of patients: 2
  No. of patients with AE leading to early termination: 78
  No. of patients with SAE: 27
[1]
  AE Asthenia: 15.9%
  AE Confusional state: 11.0%
  AE Constipation: 6.3%
  AE Contusion: 7.3%
  AE Decreased appetite: 10.0%
  AE Diarrhea: 7.3%
  AE Dizziness: 50.8%
  AE Fatigue: 33.2%
  AE Headache: 17.9%
  AE Insomnia: 10.3%
  AE Muscle spasms: 15.0%
  AE Muscular weakness: 11.3%
  AE Nasopharyngitis: 6.3%
  AE Nausea: 21.9%
  AE Respiratory failure: 6.3%
  AE Somnolence: 13.0%
[2]
  % of patients with Grade 3 AE: (20.3%)
  % of patients with Grade 4 AE: (3.0%)
  % of patients with Grade 5 AE: (0.7%)
  No. of patients with Grade 3 AE: 61
  No. of patients with Grade 4 AE: 9
  No. of patients with Grade 5 AE: 2
[3]
  % of patients with SAE: 9.0%
  Deaths, % of patients: 0.7%
[4]
  Serious AE confusional state: 0.7%
  Serious AE delirium: 0.7%
  Serious AE dysphagia: 0.7%
  Serious AE pneumonia: 0.7%
  Serious AE respiratory failure: 0.5%
double-blind phase, safety set N=301
  No. of patients with any treatment-emergent AE: 291
Of 303 randomized to tirasemtiv
  Patients who prematurely discontinued study drug: 99

From US20170042890A1, “METHODS OF REDUCING DECLINE IN VITAL CAPACITY” (Cytokinetics, Inc., priority 2014, published 2017)
